From patent US10179761B2, “Compounds, pharmaceutical composition and their use in treating neurodegenerative diseases” (UNIVERSITE DE LILLE 2 DROIT ET SANTE, priority 2014, dated 2019)
Several values for one entry are separate records, joined by “and”; a condition that tells them apart may be missing. Equal entries are not always repeated. Where two headings read alike, the source gives them in different places.

Key:
σ2 receptors = σ2 receptors (Homo sapiens (Human), UniProt Q5BJF2); experiment: σ2 binding assay, Jurkat cell membranes, [3H]-DTG in presence of (+)-pentazocine; details: read-out: Sigma 2 Ki
σ2 receptors, sequence (Q5BJF2 whole entry): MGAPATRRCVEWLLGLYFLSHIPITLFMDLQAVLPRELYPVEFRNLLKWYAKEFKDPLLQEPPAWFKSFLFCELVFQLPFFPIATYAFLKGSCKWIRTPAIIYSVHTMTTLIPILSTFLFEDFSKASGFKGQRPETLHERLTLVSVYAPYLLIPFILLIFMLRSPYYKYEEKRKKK
Protocol: (§1) The σ binding assays were performed according to Ganapathy et al. (Ganapathy, M. E.; Prasad, P. D.; Huang, W.; Seth, P.; Leibach, F. H.; Ganapathy, V. Molecular and ligand-binding characterization of the sigma-receptor in the Jurkat human T lymphocyte cell line. J. Pharmacol. Exp. Ther. 1999, 289, 251-260). […] The σ2 binding assay was performed by incubating Jurkat cell membranes ([…] protein per tube) with [^3H]-DTG (25 nM) in presence of (+)-pentazocine (1 μM) to saturate σ1 receptors, and a range of concentrations of tested compounds, at room temperature for 1 hour in 5 mM Tris/HCl buffer (pH=7.4). The final assay volume was 0.5 mL. Binding was terminated by rapid filtration through Wathman GF/B filters, which were then washed with 5×1 mL ice-cold NaCl solution and allowed to dry before bound radioactivity was measured using liquid scintillation counting. Nonspecific binding was determined, in both assays, under similar conditions, but in presence of 10 μM unlabeled haloperidol. Inhibition constants (Ki) were calculated from the IC50 values according to the method of Cheng and Prusoff (Cheng, Y.; Prusoff, W. H. Relationship between the inhibition constant (Ki) and the concentration of inhibitor which causes 50 percent inhibition (IC50) of an enzymatic reaction. Biochem Pharmacol. 1973, 22 (23), 3099-108): […]

σ1 receptors [1] = target: T1, σ1 receptors (Homo sapiens (Human), UniProt Q99720); experiment: σ1 binding assay, Jurkat cell membranes, [3H](+)-pentazocine; details: hydrochloride salts; mean of 2 or 3 independent experiments; Ki from IC50 (Cheng-Prusoff); read-out: Sigma 1 Ki
T1 sequence (Q99720 whole entry): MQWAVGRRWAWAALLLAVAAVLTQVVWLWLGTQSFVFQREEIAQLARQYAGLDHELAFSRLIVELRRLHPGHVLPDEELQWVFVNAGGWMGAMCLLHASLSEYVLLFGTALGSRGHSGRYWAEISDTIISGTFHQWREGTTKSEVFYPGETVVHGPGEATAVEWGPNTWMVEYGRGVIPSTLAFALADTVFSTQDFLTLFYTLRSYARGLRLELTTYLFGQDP

σ1 receptors [2] = target: T1, σ1 receptors; experiment: as above; details: selectivity, Ki sigma 2 / Ki sigma 1
Protocol: as §1

Male Swiss mice [3] = experiment: Dizocilpine-induced learning deficits: spontaneous alternation in the Y-maze; type: in vivo; details: NE-100 3 mg/kg + dizocilpine 0.15 mg/kg i.p.
Protocol: (§2) The activity of compound 3.1.10 was evaluated on the prevention of the dizocilpine-induced learning deficits measured using two behavioral tests. The present experiment tested if its anti-amnesic activity could be blocked by pretreatment with the reference sigma-1 receptor antagonist NE-100.
(§3) • Sixty (60) mice were used. Behavioral testing started one week after the arrival of the animals in the AMYLGEN animal facility. • 5 treatment groups were designed and used as follows:
(§4) • Vehicle 1 was physiological saline for dizocilpine, DMSO 2% in water for compound 3.1.10 • Animals were used at day 1 in the Y-maze test and at days 2 and 3 in the passive avoidance test, with training at day 2 and retention at day 3. • Test compounds, compound 3.1.10 and/or NE-100 were administered 10 min before dizocilpine (at 0.15 mg/kg i.p.) or vehicle. • Dizocilpine or vehicle 1 was administered 20 min before the Y-maze test session on day 1. • Dizocilpine or vehicle 1 was administered 20 min before the passive avoidance training session on day 2. Drugs were not injected before the retention session on day 3. • The whole experiment program was performed in a single serie experiment. • Treatments were randomized. 2.1.2. Animals
Male Swiss mice, 6 weeks old and weighing 30-35 g, from JANVIER (Saint Berthevin, France), were housed in groups with access to food and water ad libitum, except during experiments. They were kept in a temperature and humidity controlled animal facility on a 12 h/12 h light:dark cycle (lights on at 7:00 am). […]
Animals were tested for spontaneous alternation performance in the Y-maze, an index of spatial working memory. […] The number of maximum alternations was therefore the total number of arm entries minus two and the percentage of alternation was calculated as: (actual alternations/maximum alternations)×100. […]
All values, except passive avoidance latencies, were expressed as mean±S.E.M. Statistical analyses were performed using two-way ANOVA (F value), with genotype and peptide treatment as independent factors, followed by a Dunn's post-hoc multiple comparison test.

Male Swiss mice [4] = experiment: Dizocilpine-induced learning deficits: step-through passive avoidance test; type: in vivo; details: NE-100 3 mg/kg + dizocilpine 0.15 mg/kg i.p.
Protocol: as §2, §3, §4
Male Swiss mice, 6 weeks old and weighing 30-35 g, from JANVIER (Saint Berthevin, France), were housed in groups with access to food and water ad libitum, except during experiments. […]
The apparatus is a two-compartments (15×20×15 cm high) box with one illuminated with white polyvinylchloride walls and the other darkened with black polyvinylchloride walls and a grid floor. […] The step-through latency (the latency spent to enter the dark compartment) and the number of vocalizations was recorded. […] The step-through latency was recorded up to 300 s. When the mouse entered the dark compartment or 300 s has elapsed (they were therefore manually placed in it), the escape latency (latency to exit from the dark compartment) was recorded up to 300 s.
They were therefore analyzed using a Kruskal-Wallis non-parametric ANOVA (H value), followed by a Dunn's multiple comparison test.

[5] = hydrochloride salts, mean of 2 or 3 independent experiments, Ki from IC50 (Cheng-Prusoff)

| Compound | Ki (σ2 receptors; [5]) [µM] | Ki (σ1 receptors [1]) | Ratio σ2/σ1 (σ1 receptors [2]) | Ki (σ2 receptors) [µM] | effect of NE-100 by itself on dizocilpine-induced deficits, Y-maze test (Male Swiss mice [3]) | effect of NE-100 by itself on dizocilpine-induced deficits, passive avoidance test (Male Swiss mice [4]) |
| --- | --- | --- | --- | --- | --- | --- |
| CN(CCCNC(=O)c1ccc(F)cc1)Cc1ccccc1 [Compound 3.1.6, N-[3-(benzylmethylamino)propyl]-4-fluorobenzamide] | 0.47 | 0.02 µM | 24 | – | – | – |
| CN(CCCNC(=O)c1cccc(Cl)c1)Cc1ccccc1 [Compound 3.1.8, N-[3-(benzylmethylamino)propyl]-3-chlorobenzamide] | 0.34 | 0.01 µM | 34 | – | – | – |
| CN(CCCNC(=O)c1ccc(Cl)cc1)CCc1ccccc1 [Compound 3.1.12, N-[3-(N-methyl-2-phenylethylamino)propyl]-4-chlorobenzamide] | 0.2 | 0.0043 µM | 47 | – | – | – |
| CN(CCCNC(=O)c1cccc(Br)c1)Cc1ccccc1 [Compound 3.1.21, N-[3-(benzylmethylamino)propyl]-3-bromobenzamide] | 0.35 | 0.0039 µM | 90 | – | – | – |
| CN(CCCNC(=O)c1cc(Cl)cc(Cl)c1)Cc1ccccc1 [Compound 3.1.26, N-[3-(benzylmethylamino)propyl]-3,5-dichlorobenzamide] | 0.048 | 0.023 µM | 2 | – | – | – |
| CN(CCNC(=O)c1ccc(Cl)cc1Cl)Cc1ccccc1 [Compound 3.1.34, N-(2-(benzyl(methyl)amino)ethyl)-2,4-dichlorobenzamide] | 0.11 | 0.0065 µM | 17 | – | – | – |
| CN(CCNC(=O)c1ccc(C#N)cc1)Cc1ccccc1 [Compound 3.1.36, N-(2-(benzyl(methyl)amino)ethyl)-4-cyanobenzamide] | 0.17 | 0.0012 µM | – | – | – | – |
| CN(CCC(=O)NCc1ccc(Cl)cc1)Cc1ccccc1 [Compound 3.4a, N-(4-chlorobenzyl)-3-(benzylmethylamino)propanamide] | – | 0.0017 µM | 241 | 0.41 | – | – |
| CN(CCC(=O)NCc1ccc([N+](=O)[O-])cc1)Cc1ccccc1 [Compound 3.4b, N-(4-Nitrobenzyl)-3-(benzylmethylamino)propanamide] | – | 0.0013 to 0.0036 µM and 0.0023 µM | – | 6.5 | – | – |
| CN(CCC(=O)NCc1ccc(C#N)cc1)Cc1ccccc1 [Compound 3.4c, N-(4-Cyanobenzyl)-3-(benzylmethylamino)propanamide] | – | 0.0056 µM | 321 | 1.8 | – | – |
| CN(CCC(=O)NCc1cccc(Cl)c1)Cc1ccccc1 [Compound 3.4e, N-(3-Chlorobenzyl)-3-(benzylmethylamino)propanamide] | – | 0.00063 µM | 317 | 0.2 | – | – |
| CCCN(CCC)CCc1ccc(OC)c(OCCc2ccccc2)c1.Cl [NE-100, reference compound] | – | – | – | – | devoid of effect by itself | devoid of effect by itself |

Continued, in another order:

| Ki (σ2 receptors; [5]) [µM] | Ki (σ1 receptors [1]) | Ratio σ2/σ1 (σ1 receptors [2]) | Ki (σ2 receptors) [µM] | Compound | effect of NE-100 by itself on dizocilpine-induced deficits, Y-maze test (Male Swiss mice [3]) | effect of NE-100 by itself on dizocilpine-induced deficits, passive avoidance test (Male Swiss mice [4]) |
| --- | --- | --- | --- | --- | --- | --- |
| 0.85 | – | – | – | CN(CCNC(=O)c1ccc(Cl)cc1)Cc1ccccc1 [Compound 3.1.9, N-[3-(2-(N-methylbenzyl)amino)ethyl]-4-chlorobenzamide] | – | – |
| – | 0.019 µM | – | – | O=C(NCCCNCN1Cc2ccccc2C1)c1ccc(Cl)cc1 [Compound 3.1.15] | – | – |
| 0.31 | 0.0013 to 0.0036 µM and 0.0013 µM | 238 | – | CN(CCCNC(=O)c1ccc(Cl)cc1Cl)Cc1ccccc1 [Compound 3.1.24, N-[3-(benzylmethylamino)propyl]-2,4-dichlorobenzamide] | – | – |
| – | 0.0029 µM | – | – | CN(CCCNC(=O)c1ccc(Br)cc1F)Cc1ccccc1 [Compound 3.1.27, N-[3-(benzylmethylamino)propyl]-4-bromo-2-fluorobenzamide] | – | – |
| 1.4 | 0.0036 µM | – | – | CN(CCNC(=O)c1ccc([N+](=O)[O-])cc1)Cc1ccccc1 [Compound 3.1.37, N-(2-(benzyl(methyl)amino)ethyl)-4-nitrobenzamide] | – | – |
| – | 0.0023 µM | 52 | 0.12 | CN(CCC(=O)NCc1ccc(Cl)cc1Cl)Cc1ccccc1 [Compound 3.4d, N-(2,4-Dichlorobenzyl)-3-(benzylmethylamino)propanamide] | – | – |
